Assay results: patent publication US9765037B2, “Compositions and methods for treating toxoplasmosis, cryptosporidiosis, and other apicomplexan protozoan related diseases” (University of Washington Through its Center for …, priority 2010, dated 2017)
In brackets after ≈: the same amount, converted by molar mass. Like-named read-outs stand apart in the source and are kept apart here.

Tests used:
TgCDPK1 = TgCDPK1 (Toxoplasma gondii, UniProt Q9BJF5); type: biochemical; settings: read-out: IC50 (μM) TgCDPK1
CpCDPK1 = CpCDPK1 (Cryptosporidium parvum (strain Iowa II), UniProt A3FQ16); assay: biochemical; type: biochemical
[1] = Solubility in buffers of various pH; type: physicochemical; settings: pH 6.5, aqueous buffer, read-out: Experimental Solubility pH 6.5
glioma derived (SF539) = assay: Growth inhibition of human cell line SF539; settings: 25 μM
[2] = tested on: human promyelocytic leukemia (HL-60); assay: Growth inhibition of human cell line HL-60
[3] = tested on: human lymphocyte (CRL8155); assay: Growth inhibition of human cell line CRL8155
[4] = tested on: colorectal carcinoma (HC 2998); assay: Growth inhibition of human cell line HC 2998; settings: 25 μM
PfCDPK1 = PfCDPK1 (Plasmodium falciparum (isolate 3D7), UniProt P62344); assay: biochemical
PfCDPK4 = PfCDPK4 (Plasmodium falciparum (isolate 3D7), UniProt Q8IBS5); assay: biochemical
[5] = Blood levels after oral gavage dosing of mice (LC-MS); settings: mouse, in vivo, po
[6] = Table 8, read-out: IC50 (μM) CpCDPK1

Sequence of CpCDPK1 (A3FQ16 1-538): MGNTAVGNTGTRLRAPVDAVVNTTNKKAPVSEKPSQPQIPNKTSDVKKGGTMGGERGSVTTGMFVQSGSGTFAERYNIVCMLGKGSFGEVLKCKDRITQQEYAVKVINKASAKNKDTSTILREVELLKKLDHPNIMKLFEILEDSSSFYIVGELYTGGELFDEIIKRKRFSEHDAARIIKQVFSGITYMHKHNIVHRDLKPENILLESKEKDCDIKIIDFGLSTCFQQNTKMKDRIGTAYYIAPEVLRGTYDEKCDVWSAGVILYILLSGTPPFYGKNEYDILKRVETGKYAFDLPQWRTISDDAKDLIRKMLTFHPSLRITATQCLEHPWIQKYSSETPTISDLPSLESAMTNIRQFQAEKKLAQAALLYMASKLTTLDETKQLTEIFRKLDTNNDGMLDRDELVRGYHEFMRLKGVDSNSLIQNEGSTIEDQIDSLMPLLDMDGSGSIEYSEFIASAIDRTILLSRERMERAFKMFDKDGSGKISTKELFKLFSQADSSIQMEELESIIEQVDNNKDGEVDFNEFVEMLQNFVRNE
Sequence of TgCDPK1 (Q9BJF5 1-507): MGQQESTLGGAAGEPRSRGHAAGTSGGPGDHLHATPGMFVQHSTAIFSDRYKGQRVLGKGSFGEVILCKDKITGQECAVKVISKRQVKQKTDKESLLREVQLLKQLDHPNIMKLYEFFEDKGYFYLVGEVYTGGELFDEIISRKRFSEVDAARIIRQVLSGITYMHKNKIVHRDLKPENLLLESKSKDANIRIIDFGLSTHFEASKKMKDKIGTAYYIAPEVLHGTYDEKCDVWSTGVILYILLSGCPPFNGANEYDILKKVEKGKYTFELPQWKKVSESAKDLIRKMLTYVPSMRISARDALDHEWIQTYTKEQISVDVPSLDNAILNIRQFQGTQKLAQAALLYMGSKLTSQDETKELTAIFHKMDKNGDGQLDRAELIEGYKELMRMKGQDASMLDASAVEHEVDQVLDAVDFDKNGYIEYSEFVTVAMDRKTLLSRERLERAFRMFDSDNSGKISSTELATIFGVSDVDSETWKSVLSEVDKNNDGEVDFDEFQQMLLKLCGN

Compound | IC50 (TgCDPK1) [µM] | IC50 (CpCDPK1; [6]) [µM] | solubility ([1]; buffer) [µM] | EC50 (PfCDPK1) [µM] | EC50 (PfCDPK4) [µM] | further results
CC(C)n1nc(-c2ccc(Cl)cc2)c2c(N)ncnc21 [Compound 7a, 3-(4-chlorophenyl)-1-isopropyl-1H-pyrazolo[3,4-d]pyrimidin-4-amine] | 0.018 | 0.216 | 45 (≈ 12.9 µg/mL) | – | – | IC50 (CpCDPK1; read-out: CpCDPK1 IC50): 0.22 µM
CCOc1ccc2cc(-c3nn(C4CCNCC4)c4ncnc(N)c34)ccc2c1 [Compound 138] | – | – | 51 (≈ 19.8 µg/mL) | – | – | –
COc1ccc(-c2nn(CC3CCNCC3)c3ncnc(N)c23)cc1C [Compound 144] | – | – | 60 (≈ 21.1 µg/mL) | – | – | –
CC(C)n1nc(-c2ccc(Cl)c(Cl)c2)c2c(N)ncnc21 [Compound 7c, 3-(3,4-dichlorophenyl)-1-isopropyl-1H-pyrazolo[3,4-d]pyrimidin-4-amine] | – | – | – | – | – | Cell Toxicity SF539, % at 25 μM (glioma derived (SF539)): 31% at 25 μM; Cell Toxicity HL60, % at 25 μM ([2]; 25 μM): 51% at 25 μM; Cell Toxicity CRL8155, % at 25 μM ([3]; 25 μM): 54% at 25 μM; Cell Toxicity HCC2998, % at 25 μM [4]: <30% at 25 μM
CCOc1ccc2cc(-c3nc(C(C)C)n4ccnc(N)c34)ccc2c1 [Compound 10, 1-(6-ethoxynaphthalen-2-yl)-3-isopropylimidazo[1,5-a]pyrazin-8-amine] | 0.078 | 0.0336 | 29 (≈ 10 µg/mL) | 0.38 | 0.328 | AUC [5]: 112 µM·h; Cmax [5]: 26000 nM; Tmax [5]: 2.5 h
Nc1ncnc2c1c(-c1ccc3ncccc3c1)nn2CC1CCNCC1 [Compound 125] | – | – | 54 (≈ 19.4 µg/mL) | 1.09 | 0.113 | –
COc1ccc(-c2nn(C(C)(C)C)c3ncnc(N)c23)cc1C [Compound 132] | – | – | 3.8 (≈ 1.18 µg/mL) | > 3 | 1.49 | –
COc1ccc2cc(-c3nn(C(C)(C)C)c4ncnc(N)c34)ccc2c1 [Compound 135] | – | – | 3 (≈ 1.04 µg/mL) | 0.668 | 0.137 | –
CC(C)(C)n1nc(-c2ccc3ncccc3c2)c2c(N)ncnc21 [Compound 143] | – | – | 17 (≈ 5.41 µg/mL) | – | – | –
CC(C)(C)n1nc(-c2ccc(Cl)cc2)c2c(N)ncnc21 [Compound 146] | – | – | – | – | – | solubility [1]: 9 µM (≈ 2.72 µg/mL)
CCOc1ccc2cc(-c3nn(C4CCN(CC)CC4)c4ncnc(N)c34)ccc2c1 [Compound 149] | – | – | 75 (≈ 31.2 µg/mL) | – | 0.0816 | Cell Toxicity HL60, % at 30 μM [2]: <30% at 30 μM; Cell Toxicity CRL8155, % at 10 μM [3]: <30% at 10 μM; Cell Toxicity CRL8155, % at 30 μM [3]: <30% at 30 μM
Cc1cccc2[nH]c(-c3nc(C(C)(C)C)n4ccnc(N)c34)cc12 [Compound 83] | – | – | 36 (≈ 11.5 µg/mL) | 1.08 | 0.371 | Cell Toxicity HL60, % at 10 μM [2]: 37% at 10 μM; Cell Toxicity HL60, % at 30 μM [2]: 38% at 30 μM; Cell Toxicity CRL8155, % at 10 μM [3]: <30% at 10 μM; Cell Toxicity CRL8155, % at 30 μM [3]: 46% at 30 μM
CCOc1ccc2cc(-c3nn(C(C)(C)C)c4ncnc(N)c34)ccc2c1 [Compound 137] | – | – | 1 (≈ 0.361 µg/mL) | 2.43 | 0.942 | –
CC(C)CC(=O)Nc1ccc(-c2nn(C(C)(C)C)c3ncnc(N)c23)cc1 [Compound 62, N-(4-(4-amino-1-tert-butyl-1H-pyrazol[3,4-d]pyrimidin-3-yl)phenyl)-3-methylbutanamide] | 0.0409 | 0.692 | – | 0.0377 | 0.14 | –
Cn1ncc2cc(-c3nn(C(C)(C)C)c4ncnc(N)c34)ccc21 [Compound 142] | – | – | 5.2 (≈ 1.67 µg/mL) | 0.294 | 0.0947 | –
CC(C)c1nc(-c2ccc3ccccc3c2)c2c(N)nccn12 [Compound 8, 3-isopropyl-1-(naphthalen-2-yl)imidazo[1,5-a]pyrazin-8-amine] | 0.0048 | 0.0078 | – | 0.156 | 0.091 | –
CC(C)(C)n1nc(-c2ccc(NC(=O)Cc3ccccc3)cc2)c2c(N)ncnc21 [Compound 66, N-(4-(4-amino-1-tert-butyl-1H-pyrazolo[3,4-d]pyrimidin-3-yl)phenyl)-2-phenylacetamide] | 0.178 | 2.02 | – | 0.287 | 2.18 | –
Cn1ncc2cc(-c3nn(CC4CCNCC4)c4ncnc(N)c34)ccc21 [Compound 121] | – | – | 43 (≈ 15.6 µg/mL) | 0.702 | 0.146 | Cell Toxicity HL60, % at 10 μM [2]: <30% at 10 μM; Cell Toxicity CRL8155, % at 10 μM [3]: <30% at 10 μM; AUC [5]: 0.445 µM·h; Cmax [5]: 190 nM; Tmax [5]: 1.5 h

Compound | IC50 (TgCDPK1) [µM] | IC50 (CpCDPK1; [6]) [µM] | solubility ([1]; buffer) [µM] | EC50 (PfCDPK1) [µM] | EC50 (PfCDPK4) [µM] | further results
Nc1ncnc2c1c(-c1ccc3ccccc3c1)nn2CC1CCNCC1 [Compound 147, 3-(naphthalen-2-yl)-1-(piperidin-4-ylmethyl)-1H-pyrazolo[3,4-d]pyrimidin-4-amine] | – | – | 79 (≈ 28.3 µg/mL) | 0.0668 | 0.0172 | Cell Toxicity HL60, % at 10 μM [2]: 33% at 10 μM; Cell Toxicity HL60, % at 30 μM [2]: 60% at 30 μM;; Cell Toxicity CRL8155, % at 30 μM [3]: <30% at 30 μM
CC(C)(C)n1nc(-c2ccc(NC(=O)C3CCCC3)cc2)c2c(N)ncnc21 [Compound 63, N-(4-(4-amino-1-tert-butyl-1H-pyrazolo[3,4-d]pyrimidin-3-yl)phenyl)cyclopentanecarboxamide] | 0.0462 | 0.417 | – | 0.0118 | 0.136 | –
CC(C)(C)n1nc(-c2ccc(NC(=O)CCl)cc2)c2c(N)ncnc21 [Compound 58, N-(4-(4-amino-1-tert-butyl-1H-pyrazolo[3,4-d]pyrimidin-3-yl)phenyl)-2-chloroacetamide] | 0.136 | 0.588 | – | 0.214 | 2.43 | –
Nc1ncnc2c1c(-c1ccc3cc(O)ccc3c1)nn2CC1CCNCC1 [Compound 119] | – | – | 50 (≈ 18.7 µg/mL) | 0.0769 | 0.0073 | Cell Toxicity HL60, % at 10 μM [2]: <30% at 10 μM;; Cell Toxicity HL60, % at 30 μM [2]: <30% at 30 μM; Cell Toxicity CRL8155, % at 10 μM [3]: <30% at 10 μM; Cell Toxicity CRL8155, % at 30 μM [3]: <30% at 30 μM
Cn1ccc2cc(-c3nn(C(C)(C)C)c4ncnc(N)c34)ccc21 [Compound 139] | – | – | 0.69 (≈ 0.221 µg/mL) | 1.15 | 0.566 | –
CC(C)COc1ccc2cc(-c3nn(CC4CCN(C)CC4)c4ncnc(N)c34)ccc2c1 [Compound 124] | – | – | 41 (≈ 18.2 µg/mL) | 0.119 | 0.101 | AUC [5]: 6.65 µM·h; Cmax [5]: 1840 nM; Tmax [5]: 3 h
CC(C)(C)n1nc(-c2ccc(NC(=O)c3ccccc3)cc2)c2c(N)ncnc21 [Compound 65, N-(4-(4-amino-1-tert-butyl-1H-pyrazolo[3,4-d]pyrimidin-3-yl)phenyl)benzamide] | 0.171 | 1.16 | – | 0.101 | 2.85 | –
CCOc1ccc2cc(-c3nn(C4CCN(C)CC4)c4ncnc(N)c34)ccc2c1 [Compound 148] | – | – | 56 (≈ 22.5 µg/mL) | – | 0.039 | Cell Toxicity HL60, % at 10 μM [2]: <30% at 10 μM; Cell Toxicity HL60, % at 30 μM [2]: 49% at 30 μM;; Cell Toxicity CRL8155, % at 30 μM [3]: <30% at 30 μM
CC(C)(C)c1nc(-c2ccc3ccccc3c2)c2c(N)nccn12 [Compound 84] | – | – | 26 (≈ 8.23 µg/mL) | 0.0613 | 0.0551 | Cell Toxicity HL60, % at 10 μM [2]: <30% at 10 μM; Cell Toxicity HL60, % at 30 μM [2]: 50% at 30 μM; Cell Toxicity CRL8155, % at 10 μM [3]: <30% at 10 μM; Cell Toxicity CRL8155, % at 30 μM [3]: 48% at 30 μM
CC(C)C(=O)Nc1ccc(-c2nn(C(C)(C)C)c3ncnc(N)c23)cc1 [Compound 59, N-(4-(4-amino-1-tert-butyl-1H-pyrazolo[3,4-d]pyrimidin-3-yl)phenyl)isobutyramide] | 0.0997 | 0.832 | – | 0.111 | 0.459 | –
Cc1cc(-c2nn(CC3CCNCC3)c3ncnc(N)c23)ccc1-c1ccccc1 [Compound 118] | – | – | 40 (≈ 15.9 µg/mL) | 0.511 | 0.512 | –
CCC(=O)Nc1ccc(-c2nn(C(C)(C)C)c3ncnc(N)c23)cc1 [Compound 67, N-(4-(4-amino-1-tert-butyl-1H-pyrazolo[3,4-d]pyrimidin-3-yl)phenyl)propionamide] | 0.196 | 0.822 | – | 0.325 | 1.99 | –
COc1ccc2cc(-c3nc(C(C)(C)C)n4ccnc(N)c34)ccc2c1 [Compound 71, 3-tert-butyl-1-(6-methoxynaphthalen-2-yl)imidazo[1,5-a]pyrazin-8-amine] | – | – | 9 (≈ 3.12 µg/mL) | 0.0676 | 0.0652 | Cell Toxicity HL60, % at 10 μM [2]: <30% at 10 μM; Cell Toxicity CRL8155, % at 10 μM [3]: <30% at 10 μM
Nc1ncnc2c1c(-c1ccc(Cl)cc1)nn2CC1CCNCC1 [Compound 45, 3-(4-chlorophenyl)-1-(piperidin-4-ylmethyl)-1H-pyrazolo[3,4-d]pyrimidin-4-amine] | – | – | 62 (≈ 21.3 µg/mL) | 0.0565 | 0.35 | –
Cn1ccc2cc(-c3nc(C(C)(C)C)n4ccnc(N)c34)ccc21 [Compound 70, 3-tert-butyl-1-(1-methyl-1H-indol-5-yl)imidazo[1,5-a]pyrazin-8-amine] | – | – | 5 (≈ 1.6 µg/mL) | 0.0538 | 0.0834 | Cell Toxicity HL60, % at 10 μM [2]: 40% at 10 μM; Cell Toxicity CRL8155, % at 10 μM [3]: <30% at 10 μM
CC(C)(C)C(=O)Nc1ccc(-c2nn(C(C)(C)C)c3ncnc(N)c23)cc1 [Compound 60, N-(4-(4-amino-1-tert-butyl-1H-pyrazolo[3,4-d]pyrimidin-3-yl)phenyl)pivalamide] | 0.0666 | 0.929 | – | 0.0664 | 0.326 | –
Cc1cccc(-c2nn(C(C)(C)C)c3ncnc(N)c23)c1 [Compound 134] | – | – | 19.3 (≈ 5.43 µg/mL) | – | – | –
